From PMC9065678, “BI 1015550 is a PDE4B Inhibitor and a Clinical Drug Candidate for the Oral Treatment of Idiopathic Pulmonary Fibrosis” (Frontiers in Pharmacology, 2022) come the findings set out here.

One data set deals with Suncus murinus. Description: Determination of emesis in male Suncus murinus. In kind it is in vivo. Here is the method: All animals (50–55 g) were dosed orally by gavage immediately before transfer to whole-body plethysmography boxes. The volume of application was set to 10 mL/kg body weight. For assessment of the emetic events, animals were placed in the whole-body plethysmography boxes without any access to feed or water for 3 h. The whole-body plethysmography system used to detect emetic events consisted of five major components: 1) plethysmography boxes for mice (Buxco®, PLY 3211-F, Data Sciences International, New Brighton, MN, United States), 2) a pressure transducer with an amplifier, 3) a bias flow regulator, 4) a PC-based system to receive and process the amplified signals, and 5) a PC-based data acquisition system (NOTOCORD-hem™, Instem, Stone, United Kingdom) to process signals, as well as in-house-developed software to detect and identify changes in breathing pattern. Retching and vomiting induced characteristic changes in the breathing pattern of animals and these were recorded by whole-body plethysmography and translated for NOTOCORD recording. A number of preset definitions (computer-based criteria) characteristic for emetic events were determined. Peaks that met the set internal computer-based criteria and exceeded the threshold of more than 600 mV were labeled as emetic events by the system on a standard basis.

The next data set concerns the target T1, PDE9A (Homo sapiens, UniProt O76083).
T1 construct: the full-length open reading frames of PDE1C; made in house; host or cells: SF9 insect cells (baculovirus, Bac-To-Bac, pFastbac)
Description: Recombinant PDE activity, scintillation proximity assay: PDE9A. In kind it is biochemical. As to conditions: substrate cGMP. From the text: For the preparation of human recombinant PDEs of interest, the Bac-To-Bac baculoviral expression system from Invitrogen (Carlsbad, CA, United States) was used according to the instruction manual. In short, the full-length open reading frames of PDE1C (National Center for Biotechnology Information Gene-Ref-Seq identifier NG_051183), PDE3A (NG_030033), PDE4A (NG_029594, AA 156–886), PDE4C (NG_029629), PDE7A (NG_029614), and PDE9A (NG_047067) were cloned into the plasmid vector pFastbac. For PDE4B and PDE4D, active site fragments were used (PDE4B NG_029038: AA 152–484, PDE4D NG_027957, AA 79–438). The plasmids were transformed into DH10Bac bacteria, SF9 insect cells were transfected with the bacmid DNA, and the resulting baculoviruses were stored and used for further rounds of infections. […] The protein content was measured and an equal volume of 87% (v/v) glycerol was added prior to freezing at −20°C. […] The reaction was stopped by addition of 50 µL of yttrium silicate scintillation proximity assay beads (17.8 mg/mL, 18 mM zinc sulfate in H2O) and the amount of produced [^3H]AMP/[^3H]GMP associated was determined using a Wallac Microbeta scintillation counter. […]

The target in the next data set is T2, PDE5 (Homo sapiens, UniProt O76074).
T2 construct: Eurofins Cerep
The data set is described as follows: PDE5 inhibition screen at Eurofins Cerep. As to conditions: screened at Eurofins Cerep. The format is biochemical.

Another data set addresses T3, PDE4B (Homo sapiens, UniProt Q07343).
T3 construct: PDE4B NG_029038: AA 152–484; made in house; host or cells: SF9 insect cells (baculovirus, Bac-To-Bac, pFastbac)
The data set is described as follows: Recombinant PDE activity, scintillation proximity assay: PDE4B. The format is biochemical. Here is the method:
For the preparation of human recombinant PDEs of interest, the Bac-To-Bac baculoviral expression system from Invitrogen (Carlsbad, CA, United States) was used according to the instruction manual. […] The plasmids were transformed into DH10Bac bacteria, SF9 insect cells were transfected with the bacmid DNA, and the resulting baculoviruses were stored and used for further rounds of infections. For protein production, SF9 cells were infected until a cytopathic effect was visible (after about 72 h), the SF9 cells were harvested and broken up by 3 freeze/thaw cycles, and by shearing 10 times through a 0.1 mm cannula using a syringe. […] The Phosphodiesterase Scintillation Proximity Assays (TRKQ7090 for [^3H]cAMP, GE Healthcare Europe GmbH, Chalfont St Giles, United Kingdom, and TRKQ7100 for [^3H]cGMP, Perkin Elmer, Waltham, MA, United States) were performed essentially according to the instruction manual. […] Assay solutions containing recombinant baculoviral-expressed PDE (to give an activity of 5.000–20.000 cpm corresponding to 5–20% of total activity added), 50 mmol/L Tris/HCl pH 7.5, 8.3 mmol/L MgCl2, 1.7 mmol/L EGTA, and 10 µL radiolabeled substrate (0.05 µCi in H2O) were incubated for 1 h at 30°C (final volume 100 μL).

SMILES strings stand for the structures.

T3 sequence (Q07343 324-656): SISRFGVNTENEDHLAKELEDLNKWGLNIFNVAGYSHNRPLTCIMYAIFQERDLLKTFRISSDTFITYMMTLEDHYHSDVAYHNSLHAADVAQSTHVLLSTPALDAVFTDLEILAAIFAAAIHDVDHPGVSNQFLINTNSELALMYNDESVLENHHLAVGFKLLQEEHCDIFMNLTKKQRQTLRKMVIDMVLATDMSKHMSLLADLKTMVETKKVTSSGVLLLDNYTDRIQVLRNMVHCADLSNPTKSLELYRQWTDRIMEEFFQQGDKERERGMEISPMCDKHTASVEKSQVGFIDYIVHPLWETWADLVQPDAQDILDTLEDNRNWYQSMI
T1 sequence (O76083 whole entry): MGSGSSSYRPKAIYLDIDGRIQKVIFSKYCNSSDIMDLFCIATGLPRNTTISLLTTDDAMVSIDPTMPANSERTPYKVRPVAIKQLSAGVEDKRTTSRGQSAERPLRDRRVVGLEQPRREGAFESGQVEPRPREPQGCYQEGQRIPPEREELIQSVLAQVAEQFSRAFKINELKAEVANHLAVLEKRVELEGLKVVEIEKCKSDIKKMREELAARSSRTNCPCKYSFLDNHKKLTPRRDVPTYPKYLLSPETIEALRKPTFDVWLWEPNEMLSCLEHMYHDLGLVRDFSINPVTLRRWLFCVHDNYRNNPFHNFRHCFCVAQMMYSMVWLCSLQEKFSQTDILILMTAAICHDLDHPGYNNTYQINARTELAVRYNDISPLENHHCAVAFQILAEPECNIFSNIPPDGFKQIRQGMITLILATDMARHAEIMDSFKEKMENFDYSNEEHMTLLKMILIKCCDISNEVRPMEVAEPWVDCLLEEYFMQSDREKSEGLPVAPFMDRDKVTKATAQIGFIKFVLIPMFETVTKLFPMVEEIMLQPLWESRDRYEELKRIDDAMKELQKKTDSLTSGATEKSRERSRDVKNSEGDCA

As for `[O-][S+]1CCc2nc(N3CCC(c4ncc(Cl)cn4)CC3)nc(NC3(CO)CCC3)c21` (centres unmarked) [BI 1015550], the Animals showing emesis in the data set on Suncus murinus (0.5 mg/kg oral, 3 h observation, data not shown) is recorded as 3 of 24; in the data set with Suncus murinus (10 × ED50 oral (BI 1015550 6 mg/kg, roflumilast 10 mg/kg)), 5 out of 24. Besides, the “Mean emetic events per animal” value in the data set on Suncus murinus (0.5 mg/kg oral, data not shown) worked out at 0.1. Also, the “% of vomiting animals, emesis at 10 × ED50” value in the data set on Suncus murinus (oral (BI 1015550 6 mg/kg, roflumilast 10 mg/kg), 24 animals) is reported as 21%. Moreover, the IC50 on PDE9A is over 100000 nM; on PDE4B (human recombinant active site fragment, substrate [3H]cAMP, means from n independent experiments, read-out: IC50 PDE4B2), 10 nM. Moreover, the “Inhibition of human PDE5” value on PDE5 is listed as “did not inhibit”. Besides, the “Selectivity for inhibition of PDE4B versus PDE4D” value at PDE4B is on record as “roughly 10 fold”.
